Experimental data published in US7495027B2, “3-aryl-4-hydroxyfuranone compounds and the human and animal health use thereof” (Wyeth, priority 2003, dated 2009).
In brackets after ≈: the same amount, converted by molar mass. Read-outs that look alike come from different tables or passages of the source.

Tests used:
[1] = molecular target: E. coli Enopyruvyl-UPD-N-acetylglucosamine reductase, Mur B (Escherichia coli, UniProt P08373); assay: biochemical; conditions: (E) E. coli enzyme; for IC50: read-out: MurB IC50 (converted)
E. coli Enopyruvyl-UPD-N-acetylglucosamine reductase, Mur B, sequence (P08373 whole entry): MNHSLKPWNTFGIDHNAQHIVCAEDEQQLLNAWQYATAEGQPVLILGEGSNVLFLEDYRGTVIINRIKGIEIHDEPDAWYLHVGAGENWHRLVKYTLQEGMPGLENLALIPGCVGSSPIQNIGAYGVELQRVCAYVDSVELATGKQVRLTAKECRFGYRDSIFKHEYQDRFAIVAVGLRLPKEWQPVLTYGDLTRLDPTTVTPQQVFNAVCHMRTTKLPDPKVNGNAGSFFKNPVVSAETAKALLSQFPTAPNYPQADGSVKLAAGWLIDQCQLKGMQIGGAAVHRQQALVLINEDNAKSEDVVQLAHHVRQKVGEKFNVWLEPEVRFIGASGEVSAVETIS

[2] = molecular target: T1, S. aureus Uridine-diphosphate-N-acetylmuramoyl-L-alanine: D-glutamate liease, MurD (Staphylococcus aureus, UniProt Q2FZ92); assay: biochemical; conditions: (S) S. aureus enzyme
T1 sequence (Q2FZ92 1-449): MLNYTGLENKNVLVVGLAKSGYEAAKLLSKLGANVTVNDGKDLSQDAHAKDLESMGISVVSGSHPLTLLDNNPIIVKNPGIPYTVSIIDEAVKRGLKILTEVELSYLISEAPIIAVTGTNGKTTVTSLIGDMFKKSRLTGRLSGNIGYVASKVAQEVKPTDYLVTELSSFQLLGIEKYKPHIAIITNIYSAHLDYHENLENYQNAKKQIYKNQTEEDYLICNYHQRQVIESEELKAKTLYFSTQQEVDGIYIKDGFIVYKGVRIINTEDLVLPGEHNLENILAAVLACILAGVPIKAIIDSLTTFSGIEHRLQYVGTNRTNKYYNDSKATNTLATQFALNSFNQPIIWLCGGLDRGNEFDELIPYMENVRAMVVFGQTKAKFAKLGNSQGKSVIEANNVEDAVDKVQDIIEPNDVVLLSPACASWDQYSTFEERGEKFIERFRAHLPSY
Procedure, shortened: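 Test solutions, 10 mg/mL stocks in DMSO, were brought to 100 μg/mL with 50 mM Tris/HCl (pH 8.5). Their inhibition of MurD, the enzyme of the fourth cell wall biosynthesis step, was measured.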

enterococci = assay: Minimum inhibitory concentration, microdilution broth method, enterococci; assay type: cell-based; conditions: Mueller-Hinton broth, 18-22 hours at 35° C.; for MIC: Enterococcus faecalis
Procedure, shortened: (§1)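 Strep: Mueller-Hinton + 5% horse blood (LHB). Enterococci, staph: Mueller-Hinton broth alone. Microdilution format per NCCLS M7-A5 2000; isolates include resistant clinical strains.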

Streptococci = assay: Minimum inhibitory concentration, microdilution broth method, streptococci; assay type: cell-based; conditions: Mueller-Hinton broth with 5% horse blood, 18-22 hours at 35° C.; for MIC: S. pneumo GC 1894
Procedure, shortened: as §1

[3] = molecular target: T2, S. aureus Enopyruvyl-UPD-N-acetylglucosamine reductase, Mur B (Staphylococcus aureus, UniProt P61431); assay: biochemical; conditions: (S) S. aureus enzyme; for IC50: read-out: MurB IC50 (converted)
T2 sequence (P61431 1-307): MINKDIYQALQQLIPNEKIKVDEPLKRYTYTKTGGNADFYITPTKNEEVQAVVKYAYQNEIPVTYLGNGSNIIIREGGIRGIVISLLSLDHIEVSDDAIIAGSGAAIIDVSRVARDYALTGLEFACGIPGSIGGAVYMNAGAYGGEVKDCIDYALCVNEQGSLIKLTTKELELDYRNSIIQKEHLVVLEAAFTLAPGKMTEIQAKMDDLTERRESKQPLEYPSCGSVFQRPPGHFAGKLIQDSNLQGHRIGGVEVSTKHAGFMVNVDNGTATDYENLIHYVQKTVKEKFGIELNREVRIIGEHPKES

[4] = E. faecalis GC 2242, read-out: MIC E. faecalis GC 2242
[5] = E. faecalis GC 4555, read-out: MIC E. faecalis GC 4555

MurB IC50 [3] | SMILES | MurB IC50 [1] | MurD IC50 [2] | MIC E. faecalis GC 2242 (enterococci; E. faecalis GC 2242) [µg/mL] | MIC E. faecalis GC 4555 (enterococci; E. faecalis GC 4555) [µg/mL] | MIC S. pneumo GC 1894 (Streptococci) [µg/mL] | IC50 [2] [µM] | MIC (enterococci; [4]) [µg/mL] | MIC (enterococci; [5]) [µg/mL] | MIC (Streptococci) [µg/mL] | IC50 [1] [µM] | IC50 [3] [µM]
– | O=C1O/C(=C\c2ccc(-c3cccc(C(F)(F)F)c3)cc2)C(O)=C1c1cccc(C(F)(F)F)c1 | 4 (E) μg/mL | 15 µg/mL | 1 (≈ 2.1 µM) | 4 (≈ 8.4 µM) | <0.125 | – | – | – | – | – | –
– | O=C1O/C(=C\c2ccc(-c3cc(Cl)cc(Cl)c3)cc2)C(O)=C1c1cc(Cl)cc(Cl)c1 | 3 (E) μg/mL | – | – | – | – | > 52.3 | 0.5 (≈ 1.05 µM) | 1 (≈ 2.09 µM) | < 0.125 | – | –
– | O=C1OC(=Cc2ccc(-c3ccccc3)cc2)C(O)=C1c1cccc(C(F)(F)F)c1 (mixture of isomers) [Example 11] | 6 (E) μg/mL | 11 µg/mL | 1 | 8 | <0.125 | – | – | – | – | – | –
– | Cc1ccc(C=C2OC(=O)C(c3ccc(Cl)cc3)=C2O)s1 (mixture of isomers) [Example 13] | 12 (E) μg/mL | 20 µg/mL | >128 | >128 | 2 | – | – | – | – | – | –
– | O=C1O/C(=C\c2ccc(-c3ccccc3)cc2)C(O)=C1c1cccc(C(F)(F)F)c1 [Example 10] | – | – | – | – | – | 31.8 | 1 (≈ 2.45 µM) | 8 (≈ 19.6 µM) | < 0.125 | 14.7 | –
– | Cc1ccc(C=C2OC(=O)C(c3ccc(Cl)cc3)=C2O)s1 [Example 14] | >25 (E) μg/mL | >25 (E); >25 (S) μg/mL | 64 (≈ 201 µM) | 4 (≈ 12.5 µM) | 64 (≈ 201 µM) | – | – | – | – | – | –
– | O=C1O/C(=C\C2CCCCC2)C(O)=C1c1ccc(Cl)cc1 [Example 15] | – | – | – | – | – | > 82 | 32 (≈ 105 µM) | 64 (≈ 210 µM) | 0.5 (≈ 1.64 µM) | > 82 | –
– | O=C1OC(=CC2CCCCC2)C(O)=C1c1cccc(C(F)(F)F)c1 [Example 16] | >25 (E) μg/mL | >25 (E); >25 (S) μg/mL | 64 (≈ 189 µM) | 64 (≈ 189 µM) | 0.5 (≈ 1.48 µM) | – | – | – | – | – | –
– | O=C1O/C(=C\C2CCCCC2)C(O)=C1c1cccc(C(F)(F)F)c1 [Example 17] | – | – | – | – | – | > 73.9 | 32 (≈ 94.6 µM) | 64 (≈ 189 µM) | < 0.125 | > 70.9 | –
– | COc1cc(/C=C2\OC(=O)C(c3cccc(Cl)c3)=C2O)ccc1-c1ccccc1Cl [Example 18] | – | – | – | – | – | 41 | 8 (≈ 18.2 µM) | 16 (≈ 36.4 µM) | 0.5 (≈ 1.14 µM) | 13.7 | 11.4
– | COc1ccccc1-c1ccc(/C=C2\OC(=O)C(c3cc(Cl)cc(Cl)c3)=C2O)cc1OC [Example 19] | – | – | – | – | – | 36.2 | 8 (≈ 17 µM) | 8 (≈ 17 µM) | 0.5 (≈ 1.07 µM) | 42.6 | 21.3
– | COc1ccccc1-c1ccc(/C=C2\OC(=O)C(c3ccc(Cl)c(Cl)c3)=C2O)cc1OC [Example 20] | – | – | – | – | – | 40.5 | 16 (≈ 34.1 µM) | 16 (≈ 34.1 µM) | 0.5 (≈ 1.07 µM) | 6.39 | 6.39
6 (S) μg/mL | O=C1O/C(=C\c2ccc(N3CCOCC3)c(F)c2)C(O)=C1c1cc(Cl)cc(Cl)c1 [Example 34] | – | >25 (S) μg/mL | 64 (≈ 147 µM) | 64 (≈ 147 µM) | 4 (≈ 9.17 µM) | – | – | – | – | – | –
6 (S) μg/mL | COc1ccc(C=C2OC(=O)C(c3cccc(Cl)c3)=C2O)c2ccccc12 [Example 35] | – | 17 (S) μg/mL | 8 (≈ 21.1 µM) | 16 (≈ 42.2 µM) | 2 (≈ 5.28 µM) | – | – | – | – | – | –
– | COc1ccc(/C=C2\OC(=O)C(c3cc(Cl)cc(Cl)c3)=C2O)c2ccccc12 [Example 36] | – | – | – | – | – | 21.8 | 4 (≈ 9.68 µM) | 8 (≈ 19.4 µM) | 1 (≈ 2.42 µM) | – | 7.26
– | O=C1O/C(=C\c2ccc(N3CCOCC3)c3ccccc23)C(O)=C1c1cccc(Cl)c1 [Example 37] | – | – | – | – | – | 43.8 | 16 (≈ 36.9 µM) | 32 (≈ 73.8 µM) | 8 (≈ 18.4 µM) | – | 23

MurB IC50 [3] | SMILES | MurB IC50 [1] | MurD IC50 [2] | MIC E. faecalis GC 2242 (enterococci; E. faecalis GC 2242) [µg/mL] | MIC E. faecalis GC 4555 (enterococci; E. faecalis GC 4555) [µg/mL] | MIC S. pneumo GC 1894 (Streptococci) [µg/mL] | IC50 [2] [µM] | MIC (enterococci; [4]) [µg/mL] | MIC (enterococci; [5]) [µg/mL] | MIC (Streptococci) [µg/mL] | IC50 [1] [µM] | IC50 [3] [µM]
– | O=C1O/C(=C\c2ccc(N3CCOCC3)c3ccccc23)C(O)=C1c1cc(Cl)cc(Cl)c1 [Example 38] | – | – | – | – | – | 12.8 | 16 (≈ 34.2 µM) | 32 (≈ 68.3 µM) | 1 (≈ 2.14 µM) | – | 17.1
– | O=C1O/C(=C\c2cccc(C(F)(F)F)c2)C(O)=C1c1ccc2ccccc2c1 [Example 42] | 10 (E) μg/mL | – | – | – | – | > 65.4 | 8 (≈ 20.9 µM) | 32 (≈ 83.7 µM) | 8 (≈ 20.9 µM) | – | –
– | O=C1O/C(=C\C2CCCCC2)C(O)=C1c1ccc2ccccc2c1 [Example 51] | – | – | – | – | – | > 78 | 8 (≈ 25 µM) | 32 (≈ 99.9 µM) | < 0.125 | > 78 | –
– | O=C1O/C(=C\c2ccc3ccccc3c2)C(O)=C1c1ccc2ccccc2c1 [Example 52] | – | – | – | – | – | 54.9 | 4 (≈ 11 µM) | 8 (≈ 22 µM) | 0.5 (≈ 1.37 µM) | > 68.6 | –
– | O=C1O/C(=C\c2ccc(-c3ccccc3)cc2)C(O)=C1c1ccc(Cl)cc1 [Example 53] | – | – | – | – | – | 42.7 | 4 (≈ 10.7 µM) | 8 (≈ 21.3 µM) | 0.5 (≈ 1.33 µM) | 16 | –
– | O=C1O/C(=C\c2ccc3ccccc3c2)C(O)=C1c1ccc(Cl)cc1 [Example 54] | – | – | – | – | – | > 71.7 | 4 (≈ 11.5 µM) | 32 (≈ 91.7 µM) | < 0.125 | 22.9 | –
– | O=C1O/C(=C\c2ccc3ccccc3c2)C(O)=C1c1cccc2ccccc12 [Example 56] | – | – | – | – | – | 52.1 | 8 (≈ 22 µM) | 32 (≈ 87.8 µM) | 4 (≈ 11 µM) | > 68.6 | –
– | O=C1O/C(=C\c2ccc(-c3ccccc3)cc2)C(O)=C1c1cc(Cl)cc(Cl)c1 [Example 67] | – | – | – | – | – | 19.5 | 0.5 (≈ 1.22 µM) | 2 (≈ 4.89 µM) | < 0.125 | 2.44 | –
– | O=C1O/C(=C\c2ccc(-c3ccccc3)cc2)C(O)=C1c1cccc(Cl)c1 [Example 69] | – | – | – | – | – | 18.7 | 0.5 (≈ 1.33 µM) | 0.5 (≈ 1.33 µM) | 0.25 (≈ 0.667 µM) | 13.3 | –
– | O=C1O/C(=C\C2CCCCC2)C(O)=C1c1ccc(-c2ccccc2)cc1 [Example 100] | – | – | – | – | – | 69.3 | > 128 | > 128 | 64 (≈ 185 µM) | – | –
– | O=C1O/C(=C\c2cccnc2)C(O)=C1c1ccc(-c2ccccc2)cc1 [Example 101] | – | – | – | – | – | > 73.2 | 64 (≈ 187 µM) | > 128 | 64 (≈ 187 µM) | > 73.2 | –
– | Cc1ccc(/C=C2\OC(=O)C(c3ccc(-c4ccccc4)cc3)=C2O)s1 [Example 104] | – | – | – | – | – | > 69.4 | 32 (≈ 88.8 µM) | 64 (≈ 178 µM) | 0.5 (≈ 1.39 µM) | – | –
– | O=C1O/C(=C\c2cccc(C(F)(F)F)c2)C(O)=C1c1ccc(-c2ccccc2)c(F)c1 [Example 106] | 12 (E) μg/mL | – | – | – | – | 37.5 | 0.25 (≈ 0.586 µM) | 1 (≈ 2.35 µM) | 0.25 (≈ 0.586 µM) | – | –
– | O=C1O/C(=C\c2ccc(C(F)(F)F)cc2)C(O)=C1c1ccc(-c2ccccc2)cc1 [R=H, R1=4-(biphenyl), R2=4-CF3—C6H4] | – | – | – | – | – | > 61.2 | 2 (≈ 4.9 µM) | 8 (≈ 19.6 µM) | < 0.125 | 14.7 | –
– | O=C1O/C(=C\c2ccc(-c3ccc(Cl)cc3)cc2)C(O)=C1c1ccc(Cl)cc1 [R=H, R1=4-Cl—C6H4, R2=4-(4′-Cl-biphenyl)] | – | – | – | – | – | 19.5 | 2 (≈ 4.89 µM) | 8 (≈ 19.5 µM) | < 0.125 | 7.33 | –

SMILES | MurB IC50 [3] | MurB IC50 [1] | MurD IC50 [2] | MIC E. faecalis GC 2242 (enterococci; E. faecalis GC 2242) [µg/mL] | MIC E. faecalis GC 4555 (enterococci; E. faecalis GC 4555) [µg/mL] | MIC S. pneumo GC 1894 (Streptococci) [µg/mL] | IC50 [2] [µM] | MIC (enterococci; [4]) [µg/mL] | MIC (enterococci; [5]) [µg/mL] | MIC (Streptococci) [µg/mL] | IC50 [1] [µM] | IC50 [3] [µM]
O=C1OC(=Cc2cccc3ccccc23)C(O)=C1c1ccc(C=NO)cc1 (mixture of isomers) [Example 73] | 12 µg/mL | > 25 µg/mL | >25 (E); >25 (S) μg/mL | >128 | >128 | 64 | – | – | – | – | – | –
